Laboratory results reported in the NIST ThermoML archive (doi:10.1016/j.jct.2008.09.018).

Assay: xn = mol fraction of the nth substance listed
Conditions: 101 kPa, Liquid; for speed of sound: Pulse-echo method; for viscosity: Capillary tube (Ostwald / Ubbelohde) method; for mass density: Vibrating tube method

CCCCCCCCCO [nonan-1-ol] + OCCO
Conditions	mass density [kg/m3]	speed of sound [m/s]	viscosity [mPa·s]
293.15 K, x2 = 0	–	1381.6	–
293.15 K, x2 = 0.1002	–	1383.9	–
293.15 K, x2 = 0.1979	–	1387.2	–
293.15 K, x2 = 0.2964	–	1391.9	–
293.15 K, x2 = 0.3641	–	1396.2	–
293.15 K, x2 = 0.4533	–	1403.7	–
293.15 K, x2 = 0.5432	–	1414.2	–
293.15 K, x2 = 0.6441	–	1431.5	–
293.15 K, x2 = 0.7517	–	1460.2	–
293.15 K, x2 = 0.9308	–	1571.1	–
298.15 K, x2 = 0	824.48	1364.4	9.494
298.15 K, x2 = 0.1002	833.41	1366.8	9.581
298.15 K, x2 = 0.1979	843.96	1370.3	10.01
298.15 K, x2 = 0.2964	856.32	1375.2	10.67
298.15 K, x2 = 0.3641	866.44	1379.8	11.26
298.15 K, x2 = 0.4533	881.71	1387.6	12.22
298.15 K, x2 = 0.5432	900.44	1398.4	13.41
298.15 K, x2 = 0.6441	926.38	1416.2	15.09
298.15 K, x2 = 0.701	944.22	–	–
298.15 K, x2 = 0.7517	963.14	1445.4	17.32
298.15 K, x2 = 0.9308	1055.33	1558.5	19.28
303.15 K, x2 = 0	821.05	1347.4	7.994
303.15 K, x2 = 0.1002	830.02	1350	8.014
303.15 K, x2 = 0.1979	840.61	1353.6	8.359
303.15 K, x2 = 0.2964	852.92	1358.8	8.897
303.15 K, x2 = 0.3641	863	1363.5	9.37
303.15 K, x2 = 0.4533	878.3	1371.5	10.14
303.15 K, x2 = 0.5432	896.94	1382.7	11.09
303.15 K, x2 = 0.6441	922.82	1400.8	12.4
303.15 K, x2 = 0.701	940.61	–	–
303.15 K, x2 = 0.7517	959.57	1430.7	14.12
303.15 K, x2 = 0.9308	1051.63	1545.7	15.47
308.15 K, x2 = 0	817.57	1330.5	6.713
308.15 K, x2 = 0.1002	826.58	1333.2	6.801
308.15 K, x2 = 0.1979	837.18	1337.1	7.044
308.15 K, x2 = 0.2964	849.41	1342.4	7.487
308.15 K, x2 = 0.3641	859.49	1347.3	7.872
308.15 K, x2 = 0.4533	874.74	1355.6	8.493
308.15 K, x2 = 0.5432	893.37	1367.1	9.257
308.15 K, x2 = 0.6441	919.23	1385.6	10.31
308.15 K, x2 = 0.701	937.01	–	–
308.15 K, x2 = 0.7517	956	1416.1	11.66
308.15 K, x2 = 0.9308	1048.12	1532.9	12.67
313.15 K, x2 = 0	814.19	1313.6	5.657
313.15 K, x2 = 0.1002	823.15	1316.5	5.782
313.15 K, x2 = 0.1979	833.73	1320.6	5.984
313.15 K, x2 = 0.2964	845.93	1326.3	6.352
313.15 K, x2 = 0.3641	855.98	1331.3	6.667
313.15 K, x2 = 0.4533	871.22	1339.8	7.176
313.15 K, x2 = 0.5432	889.84	1351.6	7.796
313.15 K, x2 = 0.6441	915.68	1370.4	8.65
313.15 K, x2 = 0.701	933.39	–	–
313.15 K, x2 = 0.7517	952.37	1401.6	9.722
313.15 K, x2 = 0.9308	1044.52	1520.3	10.47
